Laboratory results published in ChEMBL document CHEMBL1201862, “PubChem BioAssay data set” (2004).
The source made the active and inactive calls.

Legend:
Bcl-2-like protein 10 = Bcl-2-like protein 10 (Homo sapiens, UniProt Q9HD36); test: Bcl-B/TR3 peptide binding disruption – biochemical, fluorescence polarization, FITC-TR3 peptide, selectivity assay for Bfl-1 inhibitor project, primary screen (AID 748);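 also: fluorescence polarization from a fluorescein-labelled TR3 peptide binding purified Bcl-B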
[1] = target: Intestinal-type alkaline phosphatase (Homo sapiens, UniProt P09923); test: activation of human intestinal alkaline phosphatase – biochemical, dose response (AID 488873); format: functional
[2] = target: Intestinal-type alkaline phosphatase (Mus musculus, UniProt P24822); test: PubChem AID 488785; format: functional
Vero = test: cells; format: functional; settings: Chlorocebus sabaeus
[3] = target: T1, Alkaline phosphatase, tissue-nonspecific isozyme (Homo sapiens, UniProt P05186); test: TNAP enzyme inhibition by screening hits, dose response, selectivity assay for mouse IAP inhibitor project, biochemical, human TNAP, uHTS hits (AID 488906); format: functional
T1 sequence (P05186 whole entry): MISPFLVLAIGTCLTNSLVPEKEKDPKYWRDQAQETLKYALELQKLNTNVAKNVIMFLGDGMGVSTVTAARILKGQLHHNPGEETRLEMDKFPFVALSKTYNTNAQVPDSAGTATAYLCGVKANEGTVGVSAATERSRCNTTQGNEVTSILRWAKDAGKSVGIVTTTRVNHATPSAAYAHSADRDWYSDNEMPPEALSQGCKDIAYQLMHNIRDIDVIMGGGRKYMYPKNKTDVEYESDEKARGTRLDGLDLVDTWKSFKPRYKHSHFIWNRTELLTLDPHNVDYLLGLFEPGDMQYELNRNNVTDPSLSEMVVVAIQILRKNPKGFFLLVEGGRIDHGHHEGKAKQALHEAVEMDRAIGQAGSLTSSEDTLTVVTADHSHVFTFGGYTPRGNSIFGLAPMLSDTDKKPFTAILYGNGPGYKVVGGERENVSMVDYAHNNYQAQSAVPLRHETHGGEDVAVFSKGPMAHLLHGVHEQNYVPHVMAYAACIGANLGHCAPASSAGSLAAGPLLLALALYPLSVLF

HeLa = test: ATP-based viability loss in HeLa cells – cell-based, CellTiter-Glo luminescence, cherry-pick samples, cytotoxicity control for MITF activator project, dose response (AID 540259); format: functional; settings: Homo sapiens
Beta-galactosidase = Beta-galactosidase (Escherichia coli, UniProt Q8VNN2); format: functional
[4] = target: T2, Kappa-type opioid receptor (Homo sapiens, UniProt P41145); format: functional
[5] = viability loss in HeLa cells – cytotoxicity control for MgcRacGAP inhibitor project, dose response (AID 624300); format: functional
[6] = target: T3, Rac GTPase-activating protein 1 (Homo sapiens, UniProt Q9H0H5); test: blockers of MgcRacGAP-driven Rac1 GTP hydrolysis – biochemical, ADP Hunter fluorescence, primary and confirmatory, confirmation (AID 624330); format: functional
T3 sequence (Q9H0H5 whole entry): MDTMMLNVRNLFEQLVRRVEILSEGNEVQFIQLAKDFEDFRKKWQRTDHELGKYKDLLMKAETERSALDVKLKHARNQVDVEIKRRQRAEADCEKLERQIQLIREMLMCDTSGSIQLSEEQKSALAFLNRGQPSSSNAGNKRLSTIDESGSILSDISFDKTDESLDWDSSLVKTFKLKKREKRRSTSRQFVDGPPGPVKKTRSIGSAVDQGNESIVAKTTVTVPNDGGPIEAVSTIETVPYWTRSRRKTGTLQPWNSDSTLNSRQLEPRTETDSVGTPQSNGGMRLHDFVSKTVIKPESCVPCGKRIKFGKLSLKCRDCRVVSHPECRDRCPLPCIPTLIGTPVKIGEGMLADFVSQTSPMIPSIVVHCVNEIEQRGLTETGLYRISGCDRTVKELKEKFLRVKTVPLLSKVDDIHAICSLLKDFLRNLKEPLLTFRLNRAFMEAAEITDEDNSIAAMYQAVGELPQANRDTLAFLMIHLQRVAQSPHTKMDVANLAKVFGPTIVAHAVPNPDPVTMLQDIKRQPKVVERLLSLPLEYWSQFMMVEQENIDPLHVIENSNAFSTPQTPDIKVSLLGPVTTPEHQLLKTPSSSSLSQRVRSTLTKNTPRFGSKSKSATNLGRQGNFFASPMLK

[7] = target: T2, Kappa-type opioid receptor; format: functional; remark: listed apart in the source
[8] = target: G2/mitotic-specific cyclin-B1 (Homo sapiens, UniProt P14635); test: HeLa cell cycle G2/M accumulation – FACS, mechanism study for Wee1 degradation inhibitor project, late-stage follow-up, panel member Cyclin B Degradation (AID 2088)
Wee1-like protein kinase = Wee1-like protein kinase (Homo sapiens, UniProt P30291); test: HeLa cell cycle G2/M accumulation – FACS, mechanism study for Wee1 degradation inhibitor project, late-stage follow-up, panel member Wee1 Degradation (AID 2088)
Nonstructural protein 1 = Nonstructural protein 1 (Influenza A virus, UniProt Q194T2); format: functional, Influenza A virus (A/California/07/2009(H1N1))
Hexokinase HKDC1 = target: T4, Hexokinase HKDC1 (Homo sapiens, UniProt Q2TB90); test: activation of HKDC1 glucose phosphorylation – biochemical, W721R variant, dose response (AID 504730); format: functional
T4 sequence (Q2TB90 whole entry): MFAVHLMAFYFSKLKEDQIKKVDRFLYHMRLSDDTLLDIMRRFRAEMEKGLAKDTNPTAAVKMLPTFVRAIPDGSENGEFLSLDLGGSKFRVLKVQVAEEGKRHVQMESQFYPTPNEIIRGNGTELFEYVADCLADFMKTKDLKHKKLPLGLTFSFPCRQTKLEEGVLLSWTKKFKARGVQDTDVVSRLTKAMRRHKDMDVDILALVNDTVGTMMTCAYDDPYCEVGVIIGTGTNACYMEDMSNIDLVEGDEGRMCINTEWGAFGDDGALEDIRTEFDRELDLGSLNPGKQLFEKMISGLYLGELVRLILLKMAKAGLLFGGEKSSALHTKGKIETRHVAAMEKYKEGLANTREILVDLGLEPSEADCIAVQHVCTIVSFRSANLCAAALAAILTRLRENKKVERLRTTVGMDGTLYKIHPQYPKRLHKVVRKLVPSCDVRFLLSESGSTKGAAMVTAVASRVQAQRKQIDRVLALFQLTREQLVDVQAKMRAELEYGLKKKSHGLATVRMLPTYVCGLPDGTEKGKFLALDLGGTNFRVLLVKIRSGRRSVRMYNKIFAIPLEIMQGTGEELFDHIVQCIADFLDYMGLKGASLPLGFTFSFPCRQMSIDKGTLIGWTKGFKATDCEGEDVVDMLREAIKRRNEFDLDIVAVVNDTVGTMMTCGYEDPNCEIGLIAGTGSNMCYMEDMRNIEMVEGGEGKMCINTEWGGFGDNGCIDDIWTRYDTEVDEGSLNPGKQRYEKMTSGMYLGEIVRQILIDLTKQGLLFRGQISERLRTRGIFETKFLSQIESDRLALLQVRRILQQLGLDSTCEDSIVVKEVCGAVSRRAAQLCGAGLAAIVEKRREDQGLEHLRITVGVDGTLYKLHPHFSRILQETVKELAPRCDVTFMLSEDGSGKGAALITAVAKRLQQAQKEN

[9] = viability loss in THP-1 monocytes – THP-1 cells, cytotoxicity control for Vif-APOBEC3G degradation inhibitor project, dose response (AID 1117359); format: functional; settings: THP-1
Hexokinase-1 = Hexokinase-1 (Homo sapiens, UniProt P19367); test: HK1 enzyme activation by HKDC1 hits – biochemical, selectivity assay for HKDC1 activator project, dose response (AID 504762); format: functional
[10] = blockers of SFLLRN-triggered platelet ATP secretion – cell-based, human platelets, luminescence, dry powder, dose response (AID 493100); format: functional

T2 sequence (P41145 whole entry): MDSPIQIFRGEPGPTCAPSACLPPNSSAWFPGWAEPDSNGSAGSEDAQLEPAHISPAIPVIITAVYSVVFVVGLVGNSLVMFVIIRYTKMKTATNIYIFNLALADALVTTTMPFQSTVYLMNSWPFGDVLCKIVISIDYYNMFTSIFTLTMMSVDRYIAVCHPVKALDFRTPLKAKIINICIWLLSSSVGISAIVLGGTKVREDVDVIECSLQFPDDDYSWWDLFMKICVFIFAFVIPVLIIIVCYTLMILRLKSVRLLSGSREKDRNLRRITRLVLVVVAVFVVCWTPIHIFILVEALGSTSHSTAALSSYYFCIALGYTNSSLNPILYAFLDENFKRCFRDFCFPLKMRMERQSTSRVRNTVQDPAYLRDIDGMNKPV
Chain of Hexokinase-1 (P19367 whole entry): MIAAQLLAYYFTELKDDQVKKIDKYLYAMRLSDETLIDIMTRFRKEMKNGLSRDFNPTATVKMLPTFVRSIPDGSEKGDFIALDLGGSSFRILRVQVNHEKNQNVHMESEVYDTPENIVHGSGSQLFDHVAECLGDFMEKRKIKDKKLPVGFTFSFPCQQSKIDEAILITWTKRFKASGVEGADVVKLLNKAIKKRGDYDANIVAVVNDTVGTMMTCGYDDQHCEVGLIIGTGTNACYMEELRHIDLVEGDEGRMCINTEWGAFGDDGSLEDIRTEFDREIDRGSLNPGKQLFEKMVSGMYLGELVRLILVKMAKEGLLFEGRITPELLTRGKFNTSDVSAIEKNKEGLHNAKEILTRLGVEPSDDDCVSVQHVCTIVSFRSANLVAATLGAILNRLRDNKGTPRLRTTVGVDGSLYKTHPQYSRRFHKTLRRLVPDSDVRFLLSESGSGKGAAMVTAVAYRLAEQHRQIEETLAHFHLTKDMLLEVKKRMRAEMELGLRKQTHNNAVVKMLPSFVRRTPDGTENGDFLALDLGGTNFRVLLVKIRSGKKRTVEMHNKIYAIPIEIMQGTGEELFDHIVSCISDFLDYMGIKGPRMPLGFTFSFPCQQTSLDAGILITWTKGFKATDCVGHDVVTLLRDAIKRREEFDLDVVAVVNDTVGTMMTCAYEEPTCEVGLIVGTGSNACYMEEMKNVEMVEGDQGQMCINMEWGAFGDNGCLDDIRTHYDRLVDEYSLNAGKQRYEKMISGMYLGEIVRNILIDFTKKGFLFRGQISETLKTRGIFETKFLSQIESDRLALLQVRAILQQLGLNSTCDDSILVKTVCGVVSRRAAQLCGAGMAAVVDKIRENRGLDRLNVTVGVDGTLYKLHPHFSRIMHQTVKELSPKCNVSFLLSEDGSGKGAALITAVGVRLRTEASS
Chain of Beta-galactosidase (Q8VNN2 whole entry): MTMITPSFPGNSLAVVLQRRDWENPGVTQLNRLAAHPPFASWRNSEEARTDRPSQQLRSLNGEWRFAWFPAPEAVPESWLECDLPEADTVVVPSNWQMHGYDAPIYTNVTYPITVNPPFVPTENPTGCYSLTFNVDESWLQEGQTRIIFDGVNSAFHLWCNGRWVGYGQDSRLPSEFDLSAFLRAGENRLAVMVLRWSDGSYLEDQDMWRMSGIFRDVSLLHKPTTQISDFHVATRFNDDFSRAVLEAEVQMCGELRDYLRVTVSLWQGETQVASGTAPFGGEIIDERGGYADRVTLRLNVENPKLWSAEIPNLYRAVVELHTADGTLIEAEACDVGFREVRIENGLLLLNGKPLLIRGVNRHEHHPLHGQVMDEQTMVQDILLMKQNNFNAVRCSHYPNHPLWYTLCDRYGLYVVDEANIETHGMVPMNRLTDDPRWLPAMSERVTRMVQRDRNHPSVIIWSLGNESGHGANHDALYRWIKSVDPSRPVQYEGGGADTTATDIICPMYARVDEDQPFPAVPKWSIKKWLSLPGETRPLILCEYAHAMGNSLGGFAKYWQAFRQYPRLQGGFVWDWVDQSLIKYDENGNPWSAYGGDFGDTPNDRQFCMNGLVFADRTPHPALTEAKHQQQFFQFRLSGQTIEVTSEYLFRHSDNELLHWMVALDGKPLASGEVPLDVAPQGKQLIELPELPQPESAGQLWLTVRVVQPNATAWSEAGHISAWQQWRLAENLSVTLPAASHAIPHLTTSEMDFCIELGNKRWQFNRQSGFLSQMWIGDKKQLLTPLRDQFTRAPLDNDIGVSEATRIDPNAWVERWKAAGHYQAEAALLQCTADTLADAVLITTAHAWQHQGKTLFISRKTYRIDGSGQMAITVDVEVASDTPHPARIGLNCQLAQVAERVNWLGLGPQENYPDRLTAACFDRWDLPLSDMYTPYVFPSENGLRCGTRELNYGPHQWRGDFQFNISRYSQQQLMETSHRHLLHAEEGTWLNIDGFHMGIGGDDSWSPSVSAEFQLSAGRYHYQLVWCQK
Chain of Nonstructural protein 1 (Q194T2 whole entry): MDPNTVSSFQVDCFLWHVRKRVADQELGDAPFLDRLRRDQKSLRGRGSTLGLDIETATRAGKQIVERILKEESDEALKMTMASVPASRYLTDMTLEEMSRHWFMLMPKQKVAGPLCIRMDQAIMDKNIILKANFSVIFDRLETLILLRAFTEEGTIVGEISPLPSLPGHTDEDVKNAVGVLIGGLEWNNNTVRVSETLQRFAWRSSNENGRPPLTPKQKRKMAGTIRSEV
Chain of G2/mitotic-specific cyclin-B1 (P14635 whole entry): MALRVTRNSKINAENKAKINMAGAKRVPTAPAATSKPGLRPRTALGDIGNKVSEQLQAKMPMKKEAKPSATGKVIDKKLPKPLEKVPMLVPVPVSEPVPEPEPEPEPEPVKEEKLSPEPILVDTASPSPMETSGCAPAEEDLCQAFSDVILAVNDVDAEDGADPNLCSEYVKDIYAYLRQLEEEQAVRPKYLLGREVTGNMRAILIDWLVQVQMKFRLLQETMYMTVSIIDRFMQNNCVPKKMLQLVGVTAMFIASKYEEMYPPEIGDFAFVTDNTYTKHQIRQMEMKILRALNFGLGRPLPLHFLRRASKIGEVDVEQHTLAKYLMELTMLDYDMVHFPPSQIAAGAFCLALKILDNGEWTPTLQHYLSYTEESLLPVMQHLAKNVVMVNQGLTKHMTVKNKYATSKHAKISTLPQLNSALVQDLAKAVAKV
Chain of Intestinal-type alkaline phosphatase (Mus musculus, UniProt P24822) (P24822 whole entry): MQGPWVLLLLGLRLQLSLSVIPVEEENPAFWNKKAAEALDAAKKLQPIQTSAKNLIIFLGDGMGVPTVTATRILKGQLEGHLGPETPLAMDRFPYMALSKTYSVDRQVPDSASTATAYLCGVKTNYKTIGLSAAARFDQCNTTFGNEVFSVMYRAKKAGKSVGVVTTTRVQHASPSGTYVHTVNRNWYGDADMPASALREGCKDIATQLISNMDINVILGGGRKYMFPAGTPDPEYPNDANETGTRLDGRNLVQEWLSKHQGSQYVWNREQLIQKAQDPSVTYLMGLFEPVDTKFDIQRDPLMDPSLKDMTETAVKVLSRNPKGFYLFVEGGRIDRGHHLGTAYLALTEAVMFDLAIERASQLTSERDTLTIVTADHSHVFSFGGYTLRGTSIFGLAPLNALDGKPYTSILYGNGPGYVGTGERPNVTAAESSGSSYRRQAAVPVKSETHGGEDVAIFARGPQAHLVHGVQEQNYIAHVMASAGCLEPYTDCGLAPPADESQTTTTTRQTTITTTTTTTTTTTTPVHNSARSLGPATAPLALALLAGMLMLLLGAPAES
Chain of Bcl-2-like protein 10 (Q9HD36 whole entry): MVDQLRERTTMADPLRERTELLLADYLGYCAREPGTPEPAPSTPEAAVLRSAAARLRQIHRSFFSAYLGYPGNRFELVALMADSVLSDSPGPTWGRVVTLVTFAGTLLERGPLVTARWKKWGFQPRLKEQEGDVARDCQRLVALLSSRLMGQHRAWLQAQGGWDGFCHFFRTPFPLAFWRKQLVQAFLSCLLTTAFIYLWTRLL
Chain of Wee1-like protein kinase (P30291 whole entry): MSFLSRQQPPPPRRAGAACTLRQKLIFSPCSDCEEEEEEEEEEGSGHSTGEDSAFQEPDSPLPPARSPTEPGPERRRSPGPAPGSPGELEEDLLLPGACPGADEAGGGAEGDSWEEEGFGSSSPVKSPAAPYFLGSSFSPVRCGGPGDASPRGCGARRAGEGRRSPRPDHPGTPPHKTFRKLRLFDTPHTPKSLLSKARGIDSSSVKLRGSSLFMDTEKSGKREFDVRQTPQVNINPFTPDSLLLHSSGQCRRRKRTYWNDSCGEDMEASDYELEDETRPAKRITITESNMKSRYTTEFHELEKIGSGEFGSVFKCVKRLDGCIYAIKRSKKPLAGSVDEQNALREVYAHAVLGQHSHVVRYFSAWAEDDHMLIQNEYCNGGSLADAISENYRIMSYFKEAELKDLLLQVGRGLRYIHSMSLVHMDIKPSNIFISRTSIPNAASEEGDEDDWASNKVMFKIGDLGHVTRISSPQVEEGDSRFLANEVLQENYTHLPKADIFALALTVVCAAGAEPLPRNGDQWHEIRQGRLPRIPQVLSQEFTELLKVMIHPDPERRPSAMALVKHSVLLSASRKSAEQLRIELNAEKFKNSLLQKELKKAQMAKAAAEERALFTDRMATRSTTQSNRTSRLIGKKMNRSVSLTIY
Chain of Intestinal-type alkaline phosphatase (Homo sapiens, UniProt P09923) (P09923 whole entry): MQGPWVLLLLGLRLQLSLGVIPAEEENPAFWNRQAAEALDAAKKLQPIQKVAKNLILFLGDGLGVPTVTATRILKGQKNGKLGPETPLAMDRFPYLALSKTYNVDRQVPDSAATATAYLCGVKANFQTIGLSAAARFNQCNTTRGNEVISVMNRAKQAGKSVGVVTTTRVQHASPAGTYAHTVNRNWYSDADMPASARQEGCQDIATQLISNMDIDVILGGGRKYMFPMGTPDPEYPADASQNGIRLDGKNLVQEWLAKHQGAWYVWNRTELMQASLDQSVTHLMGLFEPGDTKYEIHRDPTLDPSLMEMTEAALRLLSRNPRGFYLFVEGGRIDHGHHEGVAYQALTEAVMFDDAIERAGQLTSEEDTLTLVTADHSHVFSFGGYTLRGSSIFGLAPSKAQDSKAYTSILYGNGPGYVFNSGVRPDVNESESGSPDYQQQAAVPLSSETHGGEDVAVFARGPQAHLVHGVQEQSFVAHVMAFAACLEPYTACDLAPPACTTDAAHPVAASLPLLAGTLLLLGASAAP

Question: With `Cc1ccc2nc3sc(-c4nnc(-c5ccccc5[N+](=O)[O-])o4)c(N)c3cc2c1` as the molecule, how does the IC50 (Bcl-2-like protein 10) read?
Answer: > 100 µM (inactive)

Question: For `Cc1c(CN2CCC(C(=O)Nc3cccc(-c4cccc(Cl)c4)c3)CC2)cnn1C`, which EC50 [1] is on record?
Answer: 37.2 µM (active)

Question: What about the IC50 [2] of the same molecule?
Answer: 4.27 µM (active)

Question: What about the CC50 (Vero) of the same molecule?
Answer: 16.1 µM (active)

Question: And the IC50 [3]?
Answer: > 100 µM (inactive)

Question: Which AC50 (HeLa) does the source give for `COc1cc(/C=C2\SC(=S)N(Nc3ccccc3)C2=O)ccc1O` here?
Answer: 41 µM (active)

Question: And the EC50 (Beta-galactosidase)?
Answer: 9.67 µM (active)

Question: And the IC50 [4]?
Answer: > 32 µM

Question: And the CC50 [5]?
Answer: 100 µM (active)

Question: And the IC50 [6]?
Answer: 55.7 µM (active)

Question: And the IC50 [7]?
Answer: 8.41 µM (active)

Question: Which EC50 [8] does the source give for `c1cc2[nH]c3c(c2c2nonc12)CCCC3` here?
Answer: > 49.7 µM (inactive)

Question: What about the EC50 (Wee1-like protein kinase) of the same molecule?
Answer: > 49.7 µM (inactive)

Question: For `CC(=NNC(=S)SCc1ccccc1)c1ccccn1`, which IC50 (Nonstructural protein 1) is on record?
Answer: 12.2 µM (active)

Question: What about the EC50 (Hexokinase HKDC1) of the same molecule?
Answer: 1.61 µM (active)

Question: What about the CC50 [9] of the same molecule?
Answer: < 0.08 µM (active)

Question: And the EC50 (Hexokinase-1)?
Answer: > 80 µM (inactive)

Question: Which AC50 [10] does the source give for `CCCC(=O)Nc1cccc(NC(=O)c2ccccc2Cl)c1` here?
Answer: 6.09 µM (active)
